Measurements reported in patent US9695155B2, “Herbicidal substituted pyrimidinyloxy benzene compounds” (E. I. DU PONT DE NEMOURS AND COMPANY, priority 2013, dated 2017).

Assays:
corn [1] = test: Test C preemergence; assay type: in vivo, Zea mays; conditions: for Corn plant response rating: preemergence, scale 0 (no effect) to 100 (complete control)
How it was run: (§1)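 Whole-plant greenhouse test with surfactant-containing solvent formulation, applied preemergence to sown loam–sand pots or postemergence to 2–18 cm plants. Scored by eye 13 to 15 days on, 0–100 scale.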

oilseed rape = test: Test C preemergence; assay type: in vivo, Brassica napus; conditions: for Oilseed Rape plant response rating: preemergence, scale 0 (no effect) to 100 (complete control)
How it was run: as §1

barnyardgrass [2] = test: Test C postemergence; assay type: in vivo, Echinochloa crus-galli; conditions: for Plant response rating (0 to 100), Barnyardgrass: postemergence; for Plant response rating, Barnyardgrass: Postemergence, scale 0 to 100 (0 no effect, 100 complete control)
How it was run: as §1

waterhemp [3] = test: Test C preemergence; assay type: in vivo, Amaranthus rudis; conditions: for Waterhemp plant response rating: preemergence, scale 0 (no effect) to 100 (complete control)
How it was run: as §1

pigweed = test: Test C postemergence; assay type: in vivo, Amaranthus retroflexus; conditions: for Plant response rating (0 to 100), Pigweed: postemergence; for Plant response rating, Pigweed: Postemergence, scale 0 to 100 (0 no effect, 100 complete control)
How it was run: as §1

barnyardgrass [4] = test: Test A preemergence; assay type: in vivo, Echinochloa crus-galli
How it was run: (§2)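 Scoring: eye-based comparison with untreated controls, 0 for no effect through 100 for complete control, at about day 10. Treatments: directed soil spray preemergence; foliar spray postemergence on 2–10 cm plants at the one- to two-leaf stage. Medium: loam soil with sand.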

corn [5] = test: Test C postemergence; assay type: in vivo, Zea mays; conditions: for Plant response rating (0 to 100), Corn: postemergence; for Plant response rating, Corn: Postemergence, scale 0 to 100 (0 no effect, 100 complete control)
How it was run: as §1

blackgrass [6] = test: Test C preemergence; assay type: in vivo, Alopecurus myosuroides; conditions: for Blackgrass plant response rating: preemergence, scale 0 (no effect) to 100 (complete control)
How it was run: as §1

lambsquarters = test: Test C postemergence; assay type: in vivo, Chenopodium album; conditions: for Plant response rating (0 to 100), Lambsquarters: postemergence; for Plant response rating, Lambsquarters: Postemergence, scale 0 to 100 (0 no effect, 100 complete control)
How it was run: as §1

ragweed = test: Test C preemergence; assay type: in vivo, Ambrosia elatior; conditions: preemergence, scale 0 (no effect) to 100 (complete control)
How it was run: as §1

Italian ryegrass = test: Test C postemergence; assay type: in vivo, Lolium multiflorum; conditions: for Plant response rating (0 to 100), Ryegrass, Italian: postemergence; for Plant response rating, Ryegrass, Italian: Postemergence, scale 0 to 100 (0 no effect, 100 complete control)
How it was run: as §1

waterhemp [7] = test: Test C postemergence; assay type: in vivo, Amaranthus rudis; conditions: for Plant response rating (0 to 100), Waterhemp: postemergence; for Plant response rating, Waterhemp: Postemergence, scale 0 to 100 (0 no effect, 100 complete control)
How it was run: as §1

blackgrass [8] = test: Test C postemergence; assay type: in vivo, Alopecurus myosuroides; conditions: for Plant response rating (0 to 100), Blackgrass: postemergence; for Plant response rating, Blackgrass: Postemergence, scale 0 to 100 (0 no effect, 100 complete control)
How it was run: as §1

velvetleaf = test: Test A preemergence; assay type: in vivo, Abutilon theophrasti
How it was run: as §2

soybean = test: Test C preemergence; assay type: in vivo, Glycine max; conditions: preemergence, scale 0 (no effect) to 100 (complete control)
How it was run: as §1

morningglory = test: Test C preemergence; assay type: in vivo, Ipomoea coccinea; conditions: for Morningglory plant response rating: preemergence, scale 0 (no effect) to 100 (complete control)
How it was run: as §1

barnyardgrass [9] = test: Test C preemergence; assay type: in vivo, Echinochloa crus-galli; conditions: for Barnyardgrass plant response rating: preemergence, scale 0 (no effect) to 100 (complete control)
How it was run: as §1

giant foxtail = test: Test A preemergence; assay type: in vivo, Setaria faberii
How it was run: as §2

[10] = Preemergence, 31 g ai/ha, scale 0 to 100, 0 no effect, 100 complete control
[11] = 125 g ai/ha, 0 to 100 scale where 0 is no effect and 100 is complete control
[12] = 500 g ai/ha, 0 to 100 scale, 0 no effect, 100 complete control, approx. 10 days

## N#Cc1cccc(Oc2ncc(F)cn2)c1-n1cc(Cl)cn1 [Compound 73]
Corn [1]; 62 g ai/ha
  Corn plant response rating: 0
Corn [1]; 125 g ai/ha
  Corn plant response rating: 5
Corn [1]; 250 g ai/ha
  Corn plant response rating: 70
Corn [1]; [10]
  Plant response rating, Corn: 0
Oilseed rape; 62 g ai/ha
  Oilseed Rape plant response rating: 95
Oilseed rape; 125 g ai/ha
  Oilseed Rape plant response rating: 100
Oilseed rape; 250 g ai/ha
  Oilseed Rape plant response rating: 100
Oilseed rape; [10]
  Plant response rating, Oilseed Rape: 85
Barnyardgrass [2]; 125 g ai/ha
  Plant response rating (0 to 100), Barnyardgrass: 10
Barnyardgrass [2]; 250 g ai/ha
  Plant response rating (0 to 100), Barnyardgrass: 35
Barnyardgrass [2]; 31 g ai/ha, 13 to 15 days
  Plant response rating, Barnyardgrass: 0
Barnyardgrass [2]; 62 g ai/ha
  Plant response rating, Barnyardgrass: 0
Waterhemp [3]; 62 g ai/ha
  Waterhemp plant response rating: 100
Waterhemp [3]; 125 g ai/ha
  Waterhemp plant response rating: 100
Waterhemp [3]; 250 g ai/ha
  Waterhemp plant response rating: 100
Waterhemp [3]; [10]
  Plant response rating, Waterhemp: 100
pigweed; 125 g ai/ha
  Plant response rating (0 to 100), Pigweed: 80
pigweed; 250 g ai/ha
  Plant response rating (0 to 100), Pigweed: 90
pigweed; 31 g ai/ha, 13 to 15 days
  Plant response rating, Pigweed: 45
pigweed; 62 g ai/ha
  Plant response rating, Pigweed: 70
Barnyardgrass [4]; [11]
  Plant response rating, Barnyardgrass: 90
Barnyardgrass [4]; [12]
  Barnyardgrass plant response rating: 100
Corn [5]; 125 g ai/ha
  Plant response rating (0 to 100), Corn: 10
Corn [5]; 250 g ai/ha
  Plant response rating (0 to 100), Corn: 10
Corn [5]; 31 g ai/ha, 13 to 15 days
  Plant response rating, Corn: 5
Corn [5]; 62 g ai/ha
  Plant response rating, Corn: 5
Blackgrass [6]; 62 g ai/ha
  Blackgrass plant response rating: 80
Blackgrass [6]; 125 g ai/ha
  Blackgrass plant response rating: 90
Blackgrass [6]; 250 g ai/ha
  Blackgrass plant response rating: 90
Blackgrass [6]; [10]
  Plant response rating, Blackgrass: 0
lambsquarters; 125 g ai/ha
  Plant response rating (0 to 100), Lambsquarters: 70
lambsquarters; 250 g ai/ha
  Plant response rating (0 to 100), Lambsquarters: 80
lambsquarters; 31 g ai/ha, 13 to 15 days
  Plant response rating, Lambsquarters: 25
lambsquarters; 62 g ai/ha
  Plant response rating, Lambsquarters: 55
ragweed; 62 g ai/ha
  Ragweed plant response rating: 75
ragweed; 125 g ai/ha
  Ragweed plant response rating: 85
ragweed; 250 g ai/ha
  Ragweed plant response rating: 85
Italian ryegrass; 125 g ai/ha
  Plant response rating (0 to 100), Ryegrass, Italian: 0
Italian ryegrass; 250 g ai/ha
  Plant response rating (0 to 100), Ryegrass, Italian: 5
Italian ryegrass; 31 g ai/ha, 13 to 15 days
  Plant response rating, Ryegrass, Italian: 0
Italian ryegrass; 62 g ai/ha
  Plant response rating, Ryegrass, Italian: 0
Waterhemp [7]; 125 g ai/ha
  Plant response rating (0 to 100), Waterhemp: 75
Waterhemp [7]; 250 g ai/ha
  Plant response rating (0 to 100), Waterhemp: 90
Waterhemp [7]; 31 g ai/ha, 13 to 15 days
  Plant response rating, Waterhemp: 50
Waterhemp [7]; 62 g ai/ha
  Plant response rating, Waterhemp: 60
Blackgrass [8]; 125 g ai/ha
  Plant response rating (0 to 100), Blackgrass: 5
Blackgrass [8]; 250 g ai/ha
  Plant response rating (0 to 100), Blackgrass: 25
Blackgrass [8]; 31 g ai/ha, 13 to 15 days
  Plant response rating, Blackgrass: 0
Blackgrass [8]; 62 g ai/ha
  Plant response rating, Blackgrass: 0
velvetleaf; [11]
  Plant response rating, Velvetleaf: 100
velvetleaf; [12]
  Velvetleaf plant response rating: 100
soybean; 62 g ai/ha
  Soybean plant response rating: 60
soybean; 125 g ai/ha
  Soybean plant response rating: 75
soybean; 250 g ai/ha
  Soybean plant response rating: 90
morningglory; 62 g ai/ha
  Morningglory plant response rating: 45
morningglory; 125 g ai/ha
  Morningglory plant response rating: 95
morningglory; 250 g ai/ha
  Morningglory plant response rating: 98
morningglory; [10]
  Plant response rating, Morningglory: 45
Barnyardgrass [9]; 62 g ai/ha
  Barnyardgrass plant response rating: 80
Barnyardgrass [9]; 125 g ai/ha
  Barnyardgrass plant response rating: 100
Barnyardgrass [9]; 250 g ai/ha
  Barnyardgrass plant response rating: 100
Barnyardgrass [9]; [10]
  Plant response rating, Barnyardgrass: 60
Giant foxtail; [11]
  Plant response rating, Foxtail, Giant: 100
Giant foxtail; [12]
  Foxtail, Giant plant response rating: 100
